Data: patent US20140024638A1, “TREATMENT OF COGNITIVE DYSFUNCTION IN SCHIZOPHRENIA” (TARGACEPT, INC., priority 2011, published 2014)
“Also recorded” adds a separate entry of the source.

Key:
[1] = test system: patients with schizophrenia; assay: CogState 1-Card Learning task (visual learning), Phase 2 trial; assay type: in vivo, human; conditions: total population, subjects meeting data integrity criteria
Method: (§1) The double blind, placebo controlled Phase 2 trial was conducted at 7 sites in the United States and 12 sites in India. […] Of the randomized patients, approximately 69% were male and approximately 46% were users of tobacco products. […] The primary efficacy outcome measure was GMLT, and the trial included a number of other scales as secondary efficacy outcome measures.

[2] = test system: patients with schizophrenia; assay: Clinical Global Impression - Global Improvement (CGI-I, CGI Global Change), Phase 2 trial; assay type: in vivo, human; conditions: for CGI Global Change: Adjusted Mean / CGI Global Change: Mean Difference ± SE between TC-5619 and Placebo (Placebo-TC5619): All Patients; for CGI-I: Mean (SE): tobacco users; for CGI-I: Mean (SEM): total population
Method: as §1

[3] = test system: patients with schizophrenia; assay: Subject Global Impression - Cognition scale (SGI-Cog), Phase 2 trial; assay type: in vivo, human; conditions: for SGI-COGNITION TOTAL BY PATIENT: Adjusted Mean / SGI-COGNITION TOTAL BY PATIENT: Mean Difference ± SE between TC-5619 and Placebo (Placebo-TC5619): All Patients; for SGI-Cog: Mean (SE): tobacco users; for SGI-Cog: Mean (SEM): total population
Method: as §1

[4] = test system: patients with schizophrenia; assay: Phase 2 clinical proof of concept trial, overall efficacy; assay type: in vivo, human; conditions: Phase 2 trial
Method: as §1
The GMLT is a computerized test designed to assess executive function (the ability to organize cognitive processes, including the ability to plan, prioritize, stop and start activities, shift from one activity to another activity and to monitor one's own behavior). Impaired executive function is thought to be an important aspect of cognitive dysfunction in schizophrenia.

[5] = test system: patients with schizophrenia; assay: Phase 2 trial, safety and tolerability; assay type: in vivo, human
Method: as §1

[6] = target: α7 NNR receptor (Homo sapiens, UniProt P36544); assay: agonism at the α7 NNR receptor; assay type: biochemical
[7] = test system: patients with schizophrenia; assay: CogState International Shopping List (verbal learning), Phase 2 trial; parameters: species or system human; conditions: in vivo
Method: as §1

[8] = test system: patients with schizophrenia; assay: CogState Identification task (attention), Phase 2 trial; assay type: in vivo, human; conditions: for CogState Identification: Mean (SE): tobacco users meeting data integrity criteria; for CogState Identification: Mean (SEM): total population, subjects meeting data integrity criteria
Method: as §1

α7 NNR receptor, sequence (P36544 23-502): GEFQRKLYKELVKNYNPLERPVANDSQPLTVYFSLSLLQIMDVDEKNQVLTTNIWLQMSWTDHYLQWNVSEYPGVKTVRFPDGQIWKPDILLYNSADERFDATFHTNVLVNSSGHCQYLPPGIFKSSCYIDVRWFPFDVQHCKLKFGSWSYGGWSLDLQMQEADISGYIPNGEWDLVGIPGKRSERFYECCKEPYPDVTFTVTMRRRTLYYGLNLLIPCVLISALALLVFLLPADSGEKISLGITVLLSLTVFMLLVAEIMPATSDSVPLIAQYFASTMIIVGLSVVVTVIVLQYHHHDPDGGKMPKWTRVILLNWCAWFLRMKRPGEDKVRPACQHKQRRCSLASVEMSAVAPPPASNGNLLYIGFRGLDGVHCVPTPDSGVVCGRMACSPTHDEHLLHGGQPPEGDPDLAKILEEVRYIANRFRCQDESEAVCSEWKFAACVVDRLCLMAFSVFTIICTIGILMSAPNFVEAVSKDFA

With `O=C(N[C@@H]1C2CCN(CC2)[C@H]1Cc1cccnc1)c1cc2ccccc2o1` (single isomer, unassigned) [TC-5619] the “CogState 1-Card Learning: Mean (SEM)” value ([1]; Week 4, 1 mg daily, 1-tailed P = 0.660) was −0.008 (0.019); P = 0.660 ^, the “CogState 1-Card Learning: Mean (SEM)” value ([1]; Week 8, 5 mg daily, 1-tailed P = 0.899) was −0.024 (0.019); P = 0.899 ^ and the “CogState 1-Card Learning: Mean (SEM)” value ([1]; Week 12, 25 mg daily, 1-tailed P = 0.841) was −0.019 (0.020); P = 0.841 ^. The “CGI Global Change: Adjusted Mean” value ([2]; Week 1, 1 mg daily, SE 0.15, placebo 3.80) was 3.77, the “CGI Global Change: Mean Difference ± SE between TC-5619 and Placebo (Placebo-TC5619)” value ([2]; Week 1, 1 mg daily, one-sided 90% CI (−0.06, ∞), one-sided P 0.3434) was 0.03 ± 0.07 and the “CGI Global Change: Adjusted Mean” value ([2]; Week 4, 1 mg daily, SE 0.16, placebo 3.64) was 3.49. For the same compound, the “CGI Global Change: Mean Difference ± SE between TC-5619 and Placebo (Placebo-TC5619)” value ([2]; Week 4, 1 mg daily, one-sided 90% CI (0.04, ∞), one-sided P 0.0485) was 0.15 ± 0.09, the “CGI Global Change: Adjusted Mean” value ([2]; Week 8, 5 mg daily, SE 0.16, placebo 3.30) was 3.22 and the “CGI Global Change: Mean Difference ± SE between TC-5619 and Placebo (Placebo-TC5619)” value ([2]; Week 8, 5 mg daily, one-sided 90% CI (−0.07, ∞), one-sided P 0.2533) was 0.08 ± 0.12. The “CGI Global Change: Adjusted Mean” value ([2]; Week 12, 25 mg daily, SE 0.17, placebo 3.18) was 3.03, the “CGI Global Change: Mean Difference ± SE between TC-5619 and Placebo (Placebo-TC5619)” value ([2]; Week 12, 25 mg daily, one-sided 90% CI (−0.03, ∞), one-sided P 0.1502) was 0.15 ± 0.14 and the “Clinical Global Impression - Global Improvement, result in words” value ([2]; secondary outcome measure, investigator assessment of overall response) was “encouraging efficacy signals”. For the same compound, the “CGI-I: Mean (SE)” value ([2]; Week 4, 1 mg daily, 1-tailed p = 0.047) was 0.25 (0.14); p = 0.047, the “CGI-I: Mean (SE)” value ([2]; Week 8, 5 mg daily, 1-tailed p = 0.075) was 0.24 (0.16); p = 0.075 and the “CGI-I: Mean (SE)” value ([2]; Week 12, 25 mg daily, 1-tailed p = 0.189) was 0.18 (0.20); p = 0.189. The “CGI-I: Mean (SEM)” value ([2]; Week 4, 1 mg daily, 1-tailed p = 0.049) was 0.15 (0.09); p = 0.049, the “CGI-I: Mean (SEM)” value ([2]; Week 8, 5 mg daily, 1-tailed p = 0.253) was 0.08 (0.12); p = 0.253 and the “CGI-I: Mean (SEM)” value ([2]; Week 12, 25 mg daily, 1-tailed p = 0.150) was 0.15 (0.14); p = 0.150. For the same compound, the “SGI-COGNITION TOTAL BY PATIENT: Adjusted Mean” value ([3]; Week 1, 1 mg daily, SE 0.19, placebo 11.37) was 11.18, the “SGI-COGNITION TOTAL BY PATIENT: Mean Difference ± SE between TC-5619 and Placebo (Placebo-TC5619)” value ([3]; Week 1, 1 mg daily, one-sided 90% CI (−0.07, ∞), one-sided P 0.1757) was 0.19 ± 0.20 and the “SGI-COGNITION TOTAL BY PATIENT: Adjusted Mean” value ([3]; Week 4, 1 mg daily, SE 0.24, placebo 10.65) was 10.60. The “SGI-COGNITION TOTAL BY PATIENT: Mean Difference ± SE between TC-5619 and Placebo (Placebo-TC5619)” value ([3]; Week 4, 1 mg daily, one-sided 90% CI (−0.31, ∞), one-sided P 0.4282) was 0.05 ± 0.28, the “SGI-COGNITION TOTAL BY PATIENT: Adjusted Mean” value ([3]; Week 8, 5 mg daily, SE 0.29, placebo 9.80) was 9.79 and the “SGI-COGNITION TOTAL BY PATIENT: Mean Difference ± SE between TC-5619 and Placebo (Placebo-TC5619)” value ([3]; Week 8, 5 mg daily, one-sided 90% CI (−0.45, ∞), one-sided P 0.4914) was 0.01 ± 0.36. The “SGI-COGNITION TOTAL BY PATIENT: Adjusted Mean” value ([3]; Week 12, 25 mg daily, SE 0.31, placebo 9.61) was 8.95, the “SGI-COGNITION TOTAL BY PATIENT: Mean Difference ± SE between TC-5619 and Placebo (Placebo-TC5619)” value ([3]; Week 12, 25 mg daily, one-sided 90% CI (−0.16, ∞), one-sided P 0.0455) was 0.66 ± 0.39 and the “Subject Global Impression - Cognition scale, result in words” value ([3]; secondary outcome measure, patient self-assessment of cognitive change) was “encouraging efficacy signals”. The “SGI-Cog: Mean (SE)” value ([3]; Week 4, 1 mg daily, 1-tailed p = 0.606) was −0.13 (0.47); p = 0.606, the “SGI-Cog: Mean (SE)” value ([3]; Week 8, 5 mg daily, 1-tailed p = 0.314) was 0.24 (0.49); p = 0.314 and the “SGI-Cog: Mean (SE)” value ([3]; Week 12, 25 mg daily, 1-tailed p = 0.109) was 0.65 (0.52); p = 0.109. The “SGI-Cog: Mean (SEM)” value ([3]; Week 4, 1 mg daily, 1-tailed p = 0.428) was 0.05 (0.28); p = 0.428, the “SGI-Cog: Mean (SEM)” value ([3]; Week 8, 5 mg daily, 1-tailed p = 0.491) was 0.01 (0.36); p = 0.491 and the “SGI-Cog: Mean (SEM)” value ([3]; Week 12, 25 mg daily, 1-tailed p = 0.046) was 0.66 (0.39); p = 0.046. For the same compound, the “efficacy by tobacco use” value [4] was “showed efficacy primarily in tobacco users”, the “efficacy in Cognitive Deficits in Schizophrenia (GMLT, SANS, CGI-Global, SGI-Cog, CogState objective cognitive endpoints)” value ([4]; add-on to quetiapine or risperidone, 12 weeks, 1/5/25 mg daily) was “positive efficacy” and the “discontinuations due to adverse events, difference to placebo dose group” value ([5]; Phase 2 trial) was “no clinically significant difference”. The tolerability ([5]; Phase 2 trial, 12 weeks, 1/5/25 mg daily, listed as (2S,3R)—N-(2-((3-pyridinyl)methyl)-1-azabicyclo[2.2.2]oct-3-yl)benzofuran-2-carb) was “well tolerated; also recorded: favorable tolerability profile”, the “serious adverse events in the dose group” value ([5]; one also in placebo dose group, considered by the investigator as not drug related) was “one” and the “nausea (most frequent adverse event more common than in placebo cohort)” value ([5]; placebo 0%, mild to moderate in severity, never led to patient dropout) was 5%. The “agonist character at the α7 NNR” value ([6]; listed as (2S,3R)—N-(2-((3-pyridinyl)methyl)-1-azabicyclo[2.2.2]oct-3-yl)benzofuran-2-carb) was “selective alpha7 NNR agonist”, the “agonist character at the α7 NNR” value ([6]; listed as Compound A) was “highly selective, full agonist” and the “separation between EC50 and the IC50 (for residual inhibition)” value ([6]; α7 NNR receptor) was “good separation”. The “CogState International Shopping List (verbal learning), result in words” value [7] was “statistically significant results of improvement”, the “CogState identification (attention), result in words” value ([8]; in vivo) was “statistically significant results of improvement” and the “CogState Identification: Mean (SE)” value ([8]; Week 4, 1 mg daily, 1-tailed p = 0.097) was −0.021 (0.016); p = 0.097. The “CogState Identification: Mean (SE)” value ([8]; Week 8, 5 mg daily, 1-tailed p = 0.261) was −0.011 (0.017); p = 0.261, the “CogState Identification: Mean (SE)” value ([8]; Week 12, 25 mg daily, 1-tailed p = 0.057) was −0.026 (0.016); p = 0.057 and the “CogState Identification: Mean (SEM)” value ([8]; Week 4, 1 mg daily, 1-tailed p = 0.311) was −0.005 (0.011); p = 0.311. The “CogState Identification: Mean (SEM)” value ([8]; Week 8, 5 mg daily, 1-tailed p = 0.111) was −0.014 (0.012); p = 0.111 and the “CogState Identification: Mean (SEM)” value ([8]; Week 12, 25 mg daily, 1-tailed p = 0.063) was −0.017 (0.011); p = 0.063.
